Ends that are not written are not given here.
Columns and labels:
[1] = system: Staph. aureus DPC5245; assay: Deferred antagonism assay; type: cell-based; details: producing strain; diameter of zone minus 5 mm; average of duplicates; St. aureus DPC5245
Description: (§1) Deferred antagonism assays were performed by replicating strains on GM17 or GM17 x-gal agar plates and allowing them to grow overnight before overlaying with either GM17/BHI/TS/MH agar (0.75% w/v agar) seeded with the appropriate indicator strain. Zone size was calculated as the diameter of the zone of clearing minus the diameter of bacterial growth (5 mm) For higher throughput screening of N20PXX, XM21VX, XXK22T and XXX banks deferred antagonism assays were performed by replicating strains using a 96 pin replicator (Boekel) or spotting 5 μl of a fresh overnight culture on GM17 agar plates and allowing them to grow overnight. […] Additional sets of indicators were employed to further assess/reassess the bioactivity of a number of strains. […] For well-diffusion assays molten agar was cooled to 48° C. and seeded with the appropriate indicator strain. The inoculated medium was rapidly transferred into sterile Petri plates in 50 ml volumes, allowed to solidify and dried. Wells (4.6 mm in diameter) were then made in the seeded plates. Purified nisin and mutant nisins were resuspended in 0.005% acetic acid, serially diluted, 50 μl volumes were dispensed into the aforementioned wells and the plates incubated at 37° C. overnight. Bioactivity was expressed as arbitrary units/ml (AU/ml) and calculated as the reciprocal of the highest dilution that gave a definite zone multiplied by the conversion factor (i.e. 20 when 50 μl was used) (Ryan et al., 1996).
(§2) As a consequence of the enhanced activities of K22T and K22S, a more in-depth investigation of this region was carried out. Saturation mutagenesis was undertaken to create a bank of nisin A hinge derivatives containing the vast majority of possible amino acid substitutions for each position. Although pPTPL was used successfully for random mutagenesis, its relatively large size of approx 10.5 kb was considered unsuitable for the complete plasmid PCR amplification approach utilized for saturation mutagenesis. A smaller (approx 6 kb) E. coli-L. lactis shuttle vector pCI372 was considered to be potentially more useful. Its suitability with respect to the in trans expression of nisA was confirmed by the ability of pDFO5 to restore the nisin positive phenotype. Saturation mutagenesis was performed on each codon using pDF05 and oligonucleotides (Table 5) that replace the specific codon with a NNK triplet, potentially encoding all 20 standard amino acids. Following complete plasmid amplification and introduction into the intermediate Top10 host, sequence analysis of a pooled bank of pDF05 derivatives confirmed randomization. Introduction of these variants into L. lactis NZ9800 allowed the expression of mutant nisin A peptides for further analysis. […] 46 residue conversions were isolated. All strains, regardless of bioactivity, were assessed with a view to comprehensively assessing the consequences of each individual hinge alteration.
(§3) Values are an average of duplicate experiments and represent zone size (diameter of zone minus diameter of bacterial growth (i.e. 5 mm) relative to that of the NZ9800 pCI372nisA control. X=Mutants not identified.

[2] = system: Staph. aureus ST528 (MRSA); assay: Deferred antagonism assay; type: cell-based; details: producing strain, diameter of zone minus diameter of bacterial growth (5 mm), average of duplicates
Description: as §1, §2, §3

[3] = system: Strep. agalactiae ATCC13813; assay: Deferred antagonism assay; type: cell-based; details: producing strain, diameter of zone minus 5 mm, average of duplicates
Description: as §1, §2, §3

[4] = system: L. monocytogenes CBC1; assay: Deferred antagonism assay; type: cell-based, Listeria monocytogenes; set-up: key: + = Enhanced bioactivity relative to control; − = Bioactivity equal to or less than control; NA = no activity evident; details: producing strain; L. mono CBC1
How it was run: (§4)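 Producer strains replicated on GM17 or GM17 x-gal agar, grown overnight, then overlaid with 0.75% agar seeded with indicator strain. Zone size = diameter of clearing minus 5 mm growth diameter. Purified nisins tested by well diffusion at 37° C overnight; activity in AU/ml from reciprocal of highest active dilution × 20.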

[5] = system: L. monocytogenes CBC2; assay: Deferred antagonism assay; type: cell-based, Listeria monocytogenes; set-up: key: + = Enhanced bioactivity relative to control; − = Bioactivity equal to or less than control; NA = no activity evident; details: producing strain; L. mono CBC2
How it was run: as §4

[6] = system: L. monocytogenes CBC3; assay: Deferred antagonism assay; type: cell-based, Listeria monocytogenes; set-up: key: + = Enhanced bioactivity relative to control; − = Bioactivity equal to or less than control; NA = no activity evident; details: producing strain; L. mono CBC3
How it was run: as §4

[7] = system: L. lactis CBC7; assay: Deferred antagonism assay; type: cell-based; set-up: key: + = Enhanced bioactivity relative to control; − = Bioactivity equal to or less than control; NA = no activity evident; details: producing strain
How it was run: as §4

[8] = system: L. lactis CBC8; assay: Deferred antagonism assay; type: cell-based; set-up: key: + = Enhanced bioactivity relative to control; − = Bioactivity equal to or less than control; NA = no activity evident; details: producing strain
How it was run: as §4

[9] = system: S. aureus CBC4; assay: Deferred antagonism assay; type: cell-based; set-up: key: + = Enhanced bioactivity relative to control; − = Bioactivity equal to or less than control; NA = no activity evident; details: producing strain
How it was run: as §4

[10] = system: C. sporogenes CBC5; assay: Deferred antagonism assay; type: cell-based, Clostridium sporogenes; set-up: key: + = Enhanced bioactivity relative to control; − = Bioactivity equal to or less than control; NA = no activity evident; details: producing strain
[11] = system: L. plantarum CBC6; assay: Deferred antagonism assay; type: cell-based, Lactobacillus plantarum; set-up: key: + = Enhanced bioactivity relative to control; − = Bioactivity equal to or less than control; NA = no activity evident; details: producing strain
How it was run: as §4

[12] = system: indicator strains; assay: Deferred antagonism assays, various indicator strains (summary); type: cell-based; details: in general / against the strains tested
How it was run: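 Producer strains were replicated on GM17 or GM17 x-gal agar, grown overnight, then overlaid with GM17, BHI, TS or MH soft agar (0.75% w/v) seeded with the indicator strain. Zone size was taken as the clearing diameter minus the diameter of bacterial growth (5 mm).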

Substance	zone size relative to that of the NZ9800 pCI372nisA control [1] [%]	zone size relative to that of the NZ9800 pCI372nisA control [2] [%]	zone size relative to that of the NZ9800 pCI372nisA control [3] [%]	Bioactivity relative to control [4]	Bioactivity relative to control [5]	Bioactivity relative to control [6]	Bioactivity relative to control [7]	Bioactivity relative to control [8]	Bioactivity relative to control [9]	Bioactivity relative to control [10]	Bioactivity relative to control [11]	bioactivity of the producing strain, in words [12]
K22D: nisin A derivative, hinge substitution K22D; peptide not detected by CMS (ITSISLCTPGCKTGALMGCNMDTATCHCSIHVSK; cysteine pairing not given here; also: lantibiotic nisin-A; UniProt P13068 24-57, looked up, variant K22D)	0	0	0	−	−	−	−	−	−	−	−	devoid of bioactivity
M21E: nisin A derivative, hinge substitution M21E (ITSISLCTPGCKTGALMGCNEKTATCHCSIHVSK; cysteine pairing not given here; also: lantibiotic nisin-A; UniProt P13068 24-57, looked up, variant M21E)	0	0	0	−	−	−	−	−	−	−	−	loss of bioactivity
M21F: nisin A derivative, hinge substitution M21F (ITSISLCTPGCKTGALMGCNFKTATCHCSIHVSK; cysteine pairing not given here; also: lantibiotic nisin-A; UniProt P13068 24-57, looked up, variant M21F)	21.5	20	0	−	−	−	−	−	−	−	−	
M21P: nisin A derivative, hinge substitution M21P (ITSISLCTPGCKTGALMGCNPKTATCHCSIHVSK; cysteine pairing not given here; also: lantibiotic nisin-A; UniProt P13068 24-57, looked up, variant M21P)	32	40	0	−	−	−	−	−	−	−	−	
M21W: nisin A derivative, hinge substitution M21W (ITSISLCTPGCKTGALMGCNWKTATCHCSIHVSK; cysteine pairing not given here; also: lantibiotic nisin-A; UniProt P13068 24-57, looked up, variant M21W)	14	12	0	−	−	−	−	−	−	−	−	
N20L: nisin A derivative, hinge substitution N20L (ITSISLCTPGCKTGALMGCLMKTATCHCSIHVSK; cysteine pairing not given here; also: lantibiotic nisin-A; UniProt P13068 24-57, looked up, variant N20L)	69.5	43	69	−	−	−	−	−	−	−	−	retention of relatively high levels of bioactivity
N20V: nisin A derivative, hinge substitution N20V (ITSISLCTPGCKTGALMGCVMKTATCHCSIHVSK; cysteine pairing not given here; also: lantibiotic nisin-A; UniProt P13068 24-57, looked up, variant N20V)	77	68	63	−	−	−	−	−	−	−	−	reduced bioactivity levels
